The values below are quoted from earlier work in patent US6355677B1, “Adrenoleukodystrophy treatments and drug screening” (The Johns Hopkins University, priority 1998, dated 2002).

For data set [1] the following is noted: active ingredient of Lorenzo oil; cited from earlier work.
The conditions of data set [2]: in rats; cited from earlier work.

`CCCCCCCC/C=C\CCCCCCCCCCCC(=O)O` [erucic acid]: the Brain entry entry in data set [1] is listed as “does not get into the brain”.
Regarding `O=C(O)Cc1ccccc1` [phenylacetate], in data set [2], the Blood-brain barrier passage entry was “can cross the blood-brain barrier”.
